Measured values published in PMC8279406 (Journal of Medicinal Chemistry, 2021).

Key:
integrin β6 = tested on: T1, integrin β6; assay: Integrin internalization assay, surface integrin β6 by flow cytometry; assay type: cell-based, human; conditions: J cells with nectin1, αvβ6 and αvβ8, 700 μM, 1 h at 37 °C
T1 construct: expressed in transfected cells; host or cells: J cells (derivatives of BHK-TK2 hamster cells)
Description: Therefore, another mechanism might be responsible for the activity of 6 on J cells expressing αvβ8 integrin alone as well as the higher activity of 6 than that of 1 in cells that express both αvβ6 and αvβ8.[38] Thus, we hypothesized that 6 can prevent HSV-1 entry into J cells expressing nectin1 and the αvβ8 integrin alone by inducing internalization of the integrin itself. To validate our hypothesis, J cells were transfected with nectin1 and the two integrins αvβ6 and αvβ8 in the above-described manner. Then, 48 h after transfection, the cells were incubated for 60 min at 37 °C with 1 or 6. The surface expression of integrin β6 and β8, in the presence or the absence of peptides, was then evaluated by flow cytometry using FAB4155A (mAbβ6) and FAB4775A (mAbβ8) monoclonal antibodies that recognize other integrin regions than the RGD-binding domain.
Figure 5 Integrin internalization assay. J cells were transfected with a low amount (75 ng of DNA/24 well) of nectin1 plus αvβ6 integrin (300 ng of DNA/24 well) and αvβ8 integrin (300 ng of DNA/24 well). Then, 48 h after transfection, the cells were exposed to 700 μM peptides for 1 h at 37 °C. […] Integrin and nectin1 surface expression levels were quantified as flow cytometry expression of the APC mean fluorescence intensity (MFI) of gated cells. […]

human αvβ8 integrin = molecular target: T2, human αvβ8 integrin (Homo sapiens, UniProt P06756+P26012); assay: LAP(TGF-β1)-αvβ8 competitive solid-phase ELISA binding assay; conditions: for IC50: competitive ELISA, immobilized LAP, soluble integrin
T2 construct: purchased R&D Systems (Biotechne brand) 4135-AV
Protocol: The affinity and selectivity of the integrin peptide ligands were ascertained according to a modified method previously reported by some of us.[33],[47] The binding was determined in a competitive solid-phase binding assay using extracellular matrix proteins, soluble integrins, and pertinent integrin-specific antibodies in an enzyme-linked immunosorbent assay (ELISA).
The experimental procedure is as described for the αvβ6 assay, except for the following modifications. The plates were coated, washed, and blocked as described above. Soluble integrin αvβ8 was mixed with an equal volume of serially diluted inhibitors resulting in a final integrin concentration of 0.25 μg/mL and 0.0032–10 μM for the inhibitors. The primary and secondary antibodies are the same as in the integrin αvβ6 assay. Visualization and analysis were performed as described above. Each plate contained a linear peptide ([…]) as the internal standard.[3]

gHsolST = assay: gH binding assay, gHsolST binding to transfected J cells; assay type: cell-based, HSV-1; conditions: J cells with nectin1, αvβ6 and αvβ8, 700 μM peptide, 2 μM gHsolST
Protocol: To further verify this hypothesis, the soluble form of gH (gHsolST) was used in a soluble protein in the cell-binding assay on J cells transfected with nectin1 and the αvβ6 and αvβ8 integrins, treated or untreated with each peptide.
Figure 6 gH binding assay. J cells were transfected with a low amount (75 ng of DNA/24 well) of nectin1 plus αvβ6 integrin (300 ng of DNA/24 well) and αvβ8 integrin (300 ng of DNA/24 well). Then, 48 h after transfection, the cells were exposed to 700 μM peptides for 1 h at 37 °C. Cells derived from samples treated or not treated with peptides were incubated for 1 h at 4 °C with gHsolST or gBsolST. Samples were washed and subsequently incubated for 1 h at 4 °C with phycoerythrin (PE)-conjugated mAb to the One-STrEP tag (Strep-Tactin). gHsolST and gBsolST binding to the cell surface were quantified as the flow cytometry expression of the PE mean fluorescence intensity (MFI) of gated cells. Histograms represent the average of triplicates ± SD.
The remaining half of the samples were used for the gH binding assay. […] Control cells were incubated with 2 μM gBsolST in 100 μL of the same buffer used for gHsolST and the binding of soluble protein was detected as described for the gH binding assay. Cells were analyzed by cytofluorimetric analyses using an AccuriC6 flow cytometer (Becton Dickinson). […]

SMILES | membrane expression of integrin β6 (in words) (integrin β6) | IC50 (human αvβ8 integrin) [nM] | binding of gHsolST to cells (in words) (gHsolST) | fold more potent than 1 for αvβ8 (human αvβ8 integrin; 60 vs 174 nM) [fold]
N=C(N)NCCC[C@@H]1NC(=O)CC[C@@H](C(N)=O)NC(=O)[C@H](C2CCCCC2)NC(=O)[C@H](CC(=O)O)NC(=O)CNC1=O [compound 1, [Arg-Gly-Asp-Chg-Glu]-CONH2] | reduced | 174 ± 31 | only partially reduced | –
CN1C(=O)[C@H](C2CCCCC2)NC(=O)[C@H](CC(=O)O)NC(=O)CNC(=O)[C@H](CCCNC(=N)N)NC(=O)CC[C@H]1C(N)=O [compound 6, [Arg-Gly-Asp-Chg-(NMe)Glu]-CONH2] | reduced | 60 ± 2 | strongly reduced | 3
